Laboratory results as given in patent publication US11613547B2 (priority 2019, dated 2023).
Values joined by “and” are separate entries in the source; they are usually repeats but may differ in a detail not shown here. Equal entries are not always repeated. Where two headings read alike, the source gives them in different places.

Tests used:
mMOR [1] = biological target: T1, mMOR (Mus musculus, UniProt P42866); assay: [35S]GTPγS functional assay, mMOR; format: biochemical
T1 construct: expressed in transfected cells

mKOR [2] = biological target: T2, mKOR (Mus musculus, UniProt P33534); assay: [35S]GTPγS functional assay, mKOR; format: biochemical
T2 construct: expressed in transfected cells

mDOR [3] = biological target: T3, mDOR (Mus musculus, UniProt P32300); assay: [35S]GTPγS functional assay, mDOR; format: biochemical
T3 construct: expressed in transfected cells

hMOR [4] = biological target: T4, hMOR (Homo sapiens, UniProt P35372); assay: cell-based; format: cell-based; conditions: for Emax: HEK-293T, read-out: Gi Emax hMOR
T4 construct: expressed in transfected cells; host or cells: HEK 293T (ATCC CRL-11268), transient

hMOR [5] = biological target: T4, hMOR; assay: Tango β-arrestin recruitment assay, hMOR; format: cell-based
hKOR [6] = biological target: T5, hKOR (Homo sapiens, UniProt P41145); assay: cAMP inhibition assay (GloSensor, HEK 293T), hKOR; format: cell-based; conditions: for Emax: HEK-293T, read-out: Gi Emax hKOR; for Bias factor toward G protein, hKOR: cAMP inhibition vs Tango, against U50,488H as control
T5 construct: expressed in transfected cells; host or cells: HEK 293T (ATCC CRL-11268), transient

hKOR [7] = biological target: T5, hKOR; assay: Tango β-arrestin recruitment assay, hKOR; format: cell-based
[8] = biological target: T6, mouse mu opioid receptor (mMOR) (Mus musculus, UniProt P42866); assay: cell-based; format: cell-based; conditions: for Emax: read-out: Gi Emax mMOR
T6 construct: expressed in transfected cells; host or cells: HEK-293T, transient (PEI), with BRET sensor cDNAs

[9] = biological target: T6, mouse mu opioid receptor (mMOR); assay: cell-based; format: cell-based
[10] = biological target: T7, rat kappa opioid receptor (rKOR) (Rattus norvegicus, UniProt P34975); assay: BRET assay, G-protein activation, rKOR; format: cell-based; conditions: for Emax: read-out: Gi Emax rKOR
T7 construct: expressed in transfected cells; host or cells: HEK-293T, transient (PEI), with BRET sensor cDNAs

[11] = biological target: T7, rat kappa opioid receptor (rKOR); assay: BRET assay, arrestin recruitment, rKOR; format: cell-based
[12] = biological target: T8, mouse delta opioid receptor (mDOR) (Mus musculus, UniProt P32300); assay: BRET assay, G-protein activation, mDOR; format: cell-based; conditions: for Emax: read-out: G-Protein activation Emax % ± SEM
T8 construct: expressed in transfected cells; host or cells: HEK-293T, transient (PEI), with BRET sensor cDNAs

[13] = biological target: T8, mouse delta opioid receptor (mDOR); assay: BRET assay, arrestin recruitment, mDOR; format: cell-based
hDOR [14] = biological target: T9, hDOR (Homo sapiens, UniProt P41143); assay: cAMP inhibition assay, hDOR; format: cell-based; design: expressed in transfected cells; conditions: for Emax: read-out: cAMP inhibition Emax % ± SEM
Y312W-hKOR [15] = biological target: T10, Y312W-hKOR (Homo sapiens, UniProt P41145, Y312W); assay: Tango-arrestin recruitment assay, Y312W-hKOR mutant; format: cell-based; design: expressed in transfected cells
hDOR [16] = biological target: T9, hDOR; assay: Tango β-arrestin recruitment assay, hDOR; format: cell-based; design: expressed in transfected cells; host or cells: HTLA cells expressing TEV fused-beta-Arrestin2; conditions: for Emax: read-out: Arrestin recruitment Emax % ± SEM
Y312W-hKOR [17] = biological target: T10, Y312W-hKOR; assay: cAMP inhibition assay, Y312W-hKOR mutant; format: cell-based; design: expressed in transfected cells; host or cells: HEK 293T (inferred from the general cAMP method)
mMOR [18] = biological target: T1, mMOR; assay: Radioligand competition binding ([125I]IBNtxA), CHO membranes, mMOR; conditions: vs 125IBNtxA (0.1 nM), mean ± SEM
mKOR [19] = biological target: T2, mKOR; assay: Radioligand competition binding ([125I]IBNtxA), CHO membranes, mKOR; conditions: vs 125IBNtxA (0.1 nM), mean ± SEM
mDOR [20] = biological target: T3, mDOR; assay: Radioligand competition binding ([125I]IBNtxA), CHO membranes, mDOR; conditions: vs 125IBNtxA (0.1 nM), CHO membranes, mean ± SEM

SMILES | Emax (mMOR [1]) [%] | Emax (mKOR [2]) [%] | Emax (mDOR [3]) [%] | Bias factor toward G protein, hMOR (hMOR [4]) | Emax (hMOR [4]) [%] | Emax (hMOR [5]) [%] | EC50 (hMOR [5]; Tango) [nM] | Emax (hKOR [6]) [%] | Bias factor toward G protein, hKOR (hKOR [6]) | Emax (hKOR [7]) [%] | EC50 (hKOR [7]; Tango, WT-hKOR) [nM] | Emax [8] [%] | Emax [10] [%] | Emax [12] [%] | EC50 (hDOR [14]; hDOR) [nM] | Emax (hDOR [14]) [%] | EC50 (hDOR [16]; hDOR, Tango) [nM] | Emax (hDOR [16]) [%] | also measured
O=C(N[C@@H]1CCC2C3Cc4ccc(O)c5c4C2(CCN3CC2CC2)C1O5)c1cccc(I)c1 (stereo partly drawn) [MP1202, N-((7R,1265)-3-(Cyclopropylmethyl)-9-hydroxy-2,3,4,4a,5,6,7,7a-octahydro-1H-4,12-methanobenzofuro[3,2-e]isoquinolin-7-yl)-3-iodobenzamide] | 68 ± 1 | 94 ± 5 | 71 ± 2 | 31 | 92 ± 1.4 | 53 ± 2 | 26.8 | 110 ± 1 | 0.6 | 101 ± 1 | 0.0457 | 61 ± 1.5 | 104 ± 2 | 103 ± 4.6 | 8.18 | 99 ± 2.2 | 18.1 | 26 ± 3.1 | EC50 (hMOR [4]): 0.077 nM; EC50 (hKOR [6]; cAMP inhibition, read-out: Gi EC50 hKOR): 0.0016 nM; Bias factor toward G-protein, mMOR [8]: 58; Emax ([9]; read-out: Arrestin Emax mMOR): 53 ± 1.6%; Bias factor toward G-protein, rKOR ([10]; BRET assays, against U50,488H as control): 0.39 and 0.4; EC50 ([10]; BRET, read-out: Gi EC50 rKOR): 0.134 nM; Emax [11]: 77 ± 5%; EC50 ([11]; BRET): 1.44 nM; EC50 ([13]; mDOR, BRET): 525 nM; Emax ([13]; read-out: Arrestin recruitment Emax % ± SEM): 26 ± 2.3%; Emax (Y312W-hKOR [15]): 55 ± 2.6%; EC50 (Y312W-hKOR [15]; Tango): 3.4 nM; arrestin recruitment at Y312W-hKOR (Y312W-hKOR [15]; Tango, compared with wild-type KOR): reduced arrestin recruitment; Bias factor toward G-protein, Y312W-hKOR (Y312W-hKOR [17]; cAMP inhibition vs Tango, against U50,488H as control): 33 and 34; EC50 (Y312W-hKOR [17]; cAMP inhibition, read-out: Gi pEC50±SEM Y312W-hKOR (converted)): 0.0204 nM; Emax (Y312W-hKOR [17]; read-out: Gi Emax Y312W-hKOR): 101 ± 1.5%
CO[C@@]12CC[C@@H](NC(=O)c3cccc(I)c3)C3Oc4c(O)ccc5c4[C@@]31CCN(CC1CC1)C2C5 (stereo partly drawn) [MP1305, N-((4aS,7R,12bS)-3-(Cyclopropylmethyl)-9-hydroxy-4a-methoxy-2,3,4,4a,5,6,7,7a-octahydro-1H-4,12-methanobenzofuro[3,2-e]isoquinolin-7-yl)-3-iodobenzamide] | 81.2 ± 16 | 42.2 ± 5.3 | 22 ± 0.9 | 11 | 69 ± 1.8 | 21 ± 3 | 16.4 | 102 ± 1.2 | 4 | 75 ± 1 | 25.7 | 72 ± 2 | 35 ± 3 | 105 ± 5.9 | 74.2 | 71 ± 2.4 | 228 | 89 ± 2.8 | Ki (mMOR [18]): 0.25 ± 0.02 nM; Ki (mKOR [19]): 2.5 ± 0.3 nM; Ki (mDOR [20]): 11.7 ± 1.4 nM; EC50 (mMOR [1]; [35S]GTPγS, nM ± SEM): 0.7 ± 0.1 nM; EC50 (mKOR [2]; [35S]GTPγS, nM ± SEM): 7.4 ± 1.8 nM; EC50 (mDOR [3]; [35S]GTPγS, nM ± SEM): 31.7 ± 3.6 nM; Gi pEC50±SEM hMOR (hMOR [4]): 9.9±0.12; EC50 (hMOR [4]; read-out: Gi EC50 hMOR): 0.12 nM; Arrestin pEC50±SEM hMOR (hMOR [5]; Tango): 7.8±0.3; Gi pEC50±SEM hKOR (hKOR [6]; cAMP inhibition): 9.14±0.05; Arrestin pEC50±SEM hKOR (hKOR [7]; Tango, WT-hKOR): 7.6±0.04; Gi pEC50±SEM mMOR [8]: 9.1±0.12; EC50 ([8]; read-out: Gi EC50 mMOR): 0.74 nM; arrestin recruitment at mMOR [9]: no arrestin recruitment was observed; Gi pEC50±SEM rKOR ([10]; BRET): 8.3±0.32; arrestin recruitment at rKOR ([11]; BRET): no arrestin recruitment was observed; EC50 ([12]; mDOR, BRET): 40.4 nM; G-Protein activation pEC50 ± SEM ([12]; mDOR, BRET): 7.4 ± 0.20; cAMP inhibition pEC50 ± SEM (hDOR [14]; hDOR): 7.1 ± 0.08; Arrestin recruitment pEC50 ± SEM (hDOR [16]; hDOR, Tango): 6.6 ± 0.06
